Data from the supplement of paper PMC11451515.

System: SEM cells
Assay: cell viability relative to DMSO control; higher = less cytotoxic
Conditions: 48 h
In short: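 Before seeding, each leukemia line was adapted for at least four passages in each medium. NOMO1 or SEM cells (500 cells/well) and P12-Ichikawa cells (1000 cells/well) went into 1536-well plates at 5 μl, then received library compounds in DMSO by pin dosing across 11 threefold concentrations, 47 μM to 0.79 nM. Readout was CellTiter-Glo One luminescence after 48 h at 37°C, and viability is given as a per-plate percentage of DMSO wells, with cell-free wells as background.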

[1] = RPMI 5 mM glucose + 10% FBS, 0.000781 µM
[2] = RPMI 5 mM glucose + 10% FBS, 0.00234 µM
[3] = RPMI 5 mM glucose + 10% FBS, 0.00702 µM
[4] = RPMI 5 mM glucose + 10% FBS, 0.0211 µM
[5] = RPMI 5 mM glucose + 10% FBS, 0.0632 µM
[6] = RPMI 5 mM glucose + 10% FBS, 0.19 µM
[7] = RPMI 5 mM glucose + 10% FBS, 0.569 µM
[8] = RPMI 5 mM glucose + 10% FBS, 1.71 µM
[9] = RPMI 5 mM glucose + 10% FBS, 5.12 µM
[10] = RPMI 5 mM glucose + 10% FBS, 15.4 µM
[11] = RPMI 5 mM glucose + 10% FBS, 46.1 µM
[12] = RPMI 5 mM glucose + 10% dialyzed FBS, 0.000781 µM
[13] = RPMI 5 mM glucose + 10% dialyzed FBS, 0.00234 µM
[14] = RPMI 5 mM glucose + 10% dialyzed FBS, 0.00702 µM
[15] = RPMI 5 mM glucose + 10% dialyzed FBS, 0.0211 µM
[16] = RPMI 5 mM glucose + 10% dialyzed FBS, 0.0632 µM
[17] = RPMI 5 mM glucose + 10% dialyzed FBS, 0.19 µM
[18] = RPMI 5 mM glucose + 10% dialyzed FBS, 0.569 µM
[19] = RPMI 5 mM glucose + 10% dialyzed FBS, 1.71 µM
[20] = RPMI 5 mM glucose + 10% dialyzed FBS, 5.12 µM
[21] = RPMI 5 mM glucose + 10% dialyzed FBS, 15.4 µM
[22] = RPMI 5 mM glucose + 10% dialyzed FBS, 46.1 µM
[23] = HPLM + 10% dialyzed FBS, 0.000781 µM
[24] = HPLM + 10% dialyzed FBS, 0.00234 µM
[25] = HPLM + 10% dialyzed FBS, 0.00702 µM
[26] = HPLM + 10% dialyzed FBS, 0.0211 µM
[27] = HPLM + 10% dialyzed FBS, 0.0632 µM
[28] = HPLM + 10% dialyzed FBS, 0.19 µM
[29] = HPLM + 10% dialyzed FBS, 0.569 µM
[30] = HPLM + 10% dialyzed FBS, 1.71 µM
[31] = HPLM + 10% dialyzed FBS, 5.12 µM
[32] = HPLM + 10% dialyzed FBS, 15.4 µM
[33] = HPLM + 10% dialyzed FBS, 46.1 µM

SMILES	cell viability [1]	cell viability [2]	cell viability [3]	cell viability [4]	cell viability [5]	cell viability [6]	cell viability [7]	cell viability [8]	cell viability [9]	cell viability [10]	cell viability [11]	cell viability [12]	cell viability [13]	cell viability [14]	cell viability [15]	cell viability [16]	cell viability [17]	cell viability [18]	cell viability [19]	cell viability [20]	cell viability [21]	cell viability [22]	cell viability [23]	cell viability [24]	cell viability [25]	cell viability [26]	cell viability [27]	cell viability [28]	cell viability [29]	cell viability [30]	cell viability [31]	cell viability [32]	cell viability [33]
CCCCCCCc1ccc(CCc2cccc(O)c2C(=O)O)cc1	82.3%	113%	126%	128%	120%	112%	111%	122%	105%	107%	101%	75.5%	121%	135%	130%	119%	111%	134%	119%	110%	125%	107%	–	–	–	–	–	–	–	–	–	–	–
O=C(O)c1ccc(-n2nc(-c3ccccc3O)nc2-c2ccccc2O)cc1	80.7%	76.6%	86.7%	86.8%	100%	96.9%	93.3%	93.7%	108%	66%	24.9%	77.6%	76%	91%	98.1%	95.5%	108%	102%	102%	99.1%	58.8%	19.4%	86.4%	93%	85.3%	92%	90.9%	94.6%	96.4%	98%	101%	82.1%	43%
CC1(C)C(=O)N(CCN2CCC(C(=O)c3ccc(F)cc3)CC2)c2ccccc21	102%	121%	115%	115%	105%	117%	115%	100%	89.7%	107%	94.2%	111%	109%	105%	134%	116%	115%	117%	124%	111%	114%	101%	92.5%	111%	113%	111%	119%	119%	119%	113%	103%	98.7%	101%
Cc1cccc(C)c1OCC(=O)N[C@@H](Cc1ccccc1)[C@@H](O)C[C@H](Cc1ccccc1)NC(=O)[C@H](C(C)C)N1CCCNC1=O	97.7%	94.2%	102%	94.8%	108%	103%	95.9%	90.9%	79.6%	77.1%	36.7%	79.8%	101%	93.7%	102%	104%	100%	107%	104%	85.5%	69.1%	31.2%	80.3%	94.2%	86.7%	96.4%	100%	81.4%	85.6%	76%	78.5%	65.4%	39%
COc1cc2c(Nc3ccc(Cl)c(Cl)c3F)ncnc2cc1OC[C@@H]1C[C@@H]2CN(C)C[C@@H]2C1	98%	117%	121%	144%	118%	118%	101%	64.2%	44.4%	48%	5.51%	112%	109%	133%	129%	119%	124%	110%	75.8%	67%	55.7%	6.25%	105%	118%	121%	120%	98.8%	113%	100%	93.3%	56%	47%	10.1%
CCN(CC)C(=S)SSC(=S)N(CC)CC	74.9%	74.3%	78.7%	79.2%	73.5%	55.6%	48.6%	32.9%	2.66%	1.26%	0.625%	87.8%	97.9%	97.2%	103%	99.3%	76.6%	44.3%	33.5%	3.67%	2.09%	1.26%	99.8%	99.4%	115%	108%	102%	85.6%	55.2%	40.4%	4.49%	3.73%	2.19%
C[C@H]1C[C@H]2[C@@H]3CCC4=CC(=O)C=C[C@]4(C)[C@@]3(F)[C@@H](O)C[C@]2(C)[C@@]1(O)C(=O)CO	101%	110%	106%	105%	91.6%	67.3%	66.7%	26.4%	69.6%	22.8%	64.4%	108%	140%	114%	93.6%	87.1%	72.6%	72.3%	24%	53.2%	23.9%	74%	86.1%	105%	101%	92.8%	99.5%	78.5%	68.9%	27.5%	67.1%	31.3%	66%
NC1=NC=C(C=C1)C2=CC=C3N=CC\4=C(N(C(=O)\C=C4)C5=CC(=CC=C5)C(F)(F)F)C3=C2	84.7%	81.8%	74.2%	57.2%	42.2%	27.9%	21.8%	24.8%	8.57%	13.8%	7.9%	70.5%	66.7%	46.2%	44.4%	34.8%	23.6%	21.6%	22.5%	5.98%	5.05%	8.96%	67.9%	65.8%	53.2%	46.5%	37.5%	24.7%	28.6%	24.3%	13.3%	8.87%	14.3%
CCCCNc1cc(C(=O)O)cc([S+](N)(=O)[O-])c1Oc1ccccc1	111%	110%	117%	114%	111%	109%	107%	112%	116%	141%	111%	108%	110%	109%	113%	115%	126%	107%	123%	135%	120%	128%	80.3%	97.7%	100%	101%	103%	95.8%	99.9%	107%	115%	116%	118%
